Data on 1 compound can be found in patent US20240181068A1, “SELECTIVE NEUTRAL PH INHIBITOR OF CATHEPSIN B” (The Regents of the University of California, priority 2021, published 2024).

The target in this assay is T1, cathepsin B (Homo sapiens, UniProt P07858).
T1 construct: purchased R&D Systems 953-CY-010
Nature of the assay: Cathepsin B inhibitor kinetic characterization, fluorogenic assay with Z-Phe-Arg-AMC. Particulars: for reduction of cathepsin B activity: 64 nM inhibitor; for kinact/KI / Ki / IC50: cathepsin B. It counts as biochemical. As for the experimental part: Inhibitor kinetic characterization using fluorogenic assays for cathepsin B activity. Kinetic analyses of IC50, K1, kobs, and kinact/K1 values for Z-Arg-Lys-AOMK and Z-Glu-Lys-AOMK inhibition of cathepsin B were conducted by fluorogenic proteolytic assays consisting of 40 μM Z-Phe-Arg-AMC, 40 mM citrate phosphate at pH 7.2 or pH 4.6, 1 mM EDTA, 100 mM NaCl, 5 mM DTT, and 0.01% Tween 20; assays were performed at room temperature (22-27° C.) in quadruplicate. Inhibitor and substrate were combined in the reaction well, and the assay was started upon addition of cathepsin B (0.04 ng/μL). The inhibitor concentration ranged from 5.5 μM to 1.1 nM (1.5-fold serial dilution). A vehicle control assay contained 2% DMSO instead of inhibitor. Enzyme velocity (RFU/sec) was measured during a […] incubation period as relative fluorescent units per sec (RFU/s), calculated using the highest slope recorded for 10 consecutive readings taken at 46 sec intervals (thus, activity is calculated over a total of 460 sec). Prism software was used to analyze enzyme activity data in kinetic studies. IC50 values were calculated (without preincubation of inhibitor and enzyme) as the concentration of inhibitor that reduced cathepsin B activity by 50%.
For determination of K1 and kinact/K1 kinetic inhibition constants, kobs constants were determined by plots of cathepsin B activity in time courses with different inhibitor concentrations by curve fitting slope data of RFU versus time into Y=Y0*e^(−kobs*^X), where Y0 is the activity for the control with no inhibitor condition, Y is the activity in the presence of inhibitor, X is time. K1 and kinact values were calculated from curve fitting the kobs values into the equation kobs=kinact*[I]/(K1+[I]), where [I] is inhibitor concentration, and K1 is the x-axis inhibitor concentration where y=kinact/2 and kinact is the maximum rate of inactivation at saturating inhibitor concentrations (93, 94). These kinetic analyses are for irreversible inhibitors, Z-Arg-Lys-AOMK and Z-Glu-Lys-AOMK of this study, that utilize Ki values, rather than Ki values used for reversible inhibitors (93).

With `Cc1cccc(C)c1C(=O)OCC(=O)C(CCCCN)NC(=O)C(CCCNC(=N)N)NC(=O)OCc1ccccc1` (stereo not drawn) [Z-Arg-Lys-AOMK], the “reduction of cathepsin B activity” value turned out to be 5% (pH 4.6, Z-Phe-Arg-AMC substrate) and 93% (pH 7.2, Z-Phe-Arg-AMC substrate). Also, the kinact/KI – broadly, the second-order rate constant of inactivation – worked out at 1800 M⁻¹ s⁻¹ (pH 4.6) and 110000 M⁻¹ s⁻¹ (pH 7.2). The compound further had a Ki (pH 4.6, irreversible inhibitor) of 15000 nM and a Ki (pH 7.2, irreversible inhibitor) of 130 nM. In addition, the IC50 (in general, the concentration that inhibits the measured activity by half) runs as follows: (pH 4.6, without preincubation) 1500 nM; (pH 6.8 (data not shown)) 22 nM; (pH 7.2, without preincubation) 20 nM.
